The nature of data set [1]: physchem. As to conditions: water.
The subject of data set [2] is carrageenin-induced rat foot edema. The data set can be described thus: standard carrageenin-induced rat foot edema test, oral. The format is in vivo. As to conditions: 32 mg./kg. oral (gavage), carrageenin-injected hind paw, 3 h after carrageenin, vs vehicle control, read-out: % Inhibition of edema formation. As to the method:
In this test, anti-inflammatory activity is determined as the percent inhibition of edema formation in the hind paw of male albino rats (weighing 150-190 g.) in response to a sub-plantar injection of carrageenin. The carrageenin is injected as a 1% aqueous suspension (0.05 ml.) one hour after oral administration of the drug, which is normally given in the form of an aqueous solution. Edema formation is then assessed by measuring the volume of the injected paw initially as well as three hours after the carrageenin injection. The increase in volume three hours after carrageenin injection constitutes the individual response. Compounds are considered active if the difference in response between the drug-treated animals (six rats/group) and a control group receiving the vehicle alone is significant on comparison with the results afforded by a standard compound like phenylbutazone at 33 mg./kg., via the oral route of administration.
The following oxyethyl oxicam final products of Examples 1B, 1C and 5, respectively, were tested for anti-inflammatory activity in rats, using the standard rat foot edema test, according to the general procedure described by C. A. Winter et al., as first reported in the Proceedings of the Society for Experimental Biology and Medicine, Vol. 111, p. 544 (1962).
In general terms: Carrageenan injected into the paw causes an acute inflammation.

The conditions of data set [3]: compared with piroxicam at an equivalent dose level and other NSAI agents.

In brackets after ≈: the same amount, converted by molar mass.

Results on six molecules are retold here after patent publication US5081118A, “Benzothiazine dioxide derivatives” (Pfizer Inc., priority 1990, dated 1992).

The term solubility denotes the dissolved amount per volume that the medium holds. Lower therefore signals little dissolved substance. `CC(C)Cc1ccc(C(C)C(=O)O)cc1` (centres unmarked) [Ibuprofen] came in with a solubility in data set [1] of 0.3 mg/mL (≈ 1.45 mM).

A word on the inhibition: it is how much of the control response was suppressed. Turning to `CN1C(C(=O)Nc2cccc[n+]2CCO)=C([O-])c2ccccc2S1(=O)=O` [Product of Example 1C, N-[1-(2-hydroxyethyl)-2-pyridinium]-2-methyl-2H-1,2-benzothiazine-3-carboxamide 1,1-dioxide 4-enolate], the inhibition at 32 mg/kg in data set [2] is 16%.

With `CN1C(C(=O)Nc2ccccn2)=C(OCCO)c2ccccc2S1(=O)=O` [Product of Example 1B, 4-(2-hydroxyethyloxy)-2-methyl-N-(2-pyridinyl)-2H-1,2-benzothiazine-3-carboxamide 1,1-dioxide], the inhibition at 32 mg/kg in data set [2] was found to be 48%. The “oral absorption potential, comparison in words” value in data set [3] is given as “highest oral absorption potential seen in the series of compounds tested”. Further, the concentration in solution in data set [1] (solubility) was 470 mg/mL (≈ 1250 mM).

On to `COc1ccc2c(c1)c(CC(=O)O)c(C)n2C(=O)c1ccc(Cl)cc1` [Indomethacin], for which, in data set [1], the solubility came to 0.7 mg/mL (≈ 1.96 mM).

`Cc1cccc(NC(=O)C2=C(OCCO)c3ccccc3S(=O)(=O)N2C)n1` [Product of Example 5, 4-(2-hydroxyethyloxy)-2-methyl-N-(6-methyl-2-pyridinyl)-2H-1,2-benzothiazine-3-carboxamide 1,1-dioxide]: the inhibition at 32 mg/kg in data set [2] worked out at 13%.

Turning to `CN1C(C(=O)Nc2ccccn2)=C(O)c2ccccc2S1(=O)=O` [Piroxicam, 4-hydroxy-2-methyl-N-(2-pyridinyl)-2H-1,2-benzothiazine-3-carboxamide 1,1-dioxide], the concentration in solution in data set [1] (solubility) came to 26.5 mg/mL (≈ 80 mM).
